In US20240059703A1 (AMGEN INC., priority 2021, published 2024):

biological target: KRAS G12C (Homo sapiens (Human), UniProt P01116, C118A/G12C); assay: 2 h coupled exchange assay; assay type: biochemical; settings: Avg 2 h Coupled exchange IC50, 2 h compound pre-incubation
Procedure: The term “2 h coupled exchange assay” or “20 h coupled exchange assay” as used herein refers to the assay described in the Section entitled “BIOLOGICAL EVALUATION.”

Chain of KRAS G12C (P01116 other isoform, or with tags, fused parts or gaps G12C/C118A): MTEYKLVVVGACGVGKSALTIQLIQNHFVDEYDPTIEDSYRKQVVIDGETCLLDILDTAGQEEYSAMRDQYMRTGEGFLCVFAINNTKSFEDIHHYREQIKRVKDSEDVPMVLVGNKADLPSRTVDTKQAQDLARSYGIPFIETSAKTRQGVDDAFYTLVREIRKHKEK

In order of falling IC50:
1. C=CC(=O)N1CC2(CCN(c3nc4c(c(-c5c(C)ccc6[nH]ncc56)c3F)C[C@H]3C[C@@H]4C3(C)C)C2)C1 (single isomer, unassigned) [Example 14-74]  1.56 µM
2. C=CC(=O)N1CC2(CCN(c3nc4cc(-n5ccnc5C)ccc4c(-c4ccccc4Cl)c3C)[C@H]2C)C1 (single isomer, unassigned) [Example 15-5]  0.779 µM
3. C=CC(=O)N1CC2(CCN(c3nc4cc(-c5ccnn5C)ccc4c(-c4ccc(F)cc4F)c3C)C2)C1 [Example 16-6, 1-(6-(4-(2,4-difluorophenyl)-3-methyl-7-(1-methyl-1H-pyrazol-5-yl)-2-quinolinyl)-2,6-diazaspiro[3.4]octan-2-yl)-2-propen-1-one]  0.708 µM
4. C=CC(=O)N1CC2(CCN(c3nc4cc(-c5ccnn5C)ccc4c(-c4cc(O)c(F)cc4F)c3C)C2)C1 [Example 16-12, 1-(6-(4-(2,4-difluoro-5-hydroxyphenyl)-3-methyl-7-(1-methyl-1H-pyrazol-5-yl)-2-quinolinyl)-2,6-diazaspiro[3.4]octan-2-yl)-2-propen-1-one]  0.488 µM
5. C=CC(=O)N1CC2(CCN(c3nc4cc(-c5ccnn5C)ccc4c(-c4cc(O)c(F)cc4Cl)c3C)C2)C1 [Example 16-14, 1-(6-(4-(2-chloro-4-fluoro-5-hydroxyphenyl)-3-methyl-7-(1-methyl-1H-pyrazol-5-yl)-2-quinolinyl)-2,6-diazaspiro[3.4]octan-2-yl)-2-propen-1-one]  0.373 µM
6. C=CC(=O)N1CC2(CCN(c3nc4c(c(-c5c(C)ccc6cnn(C)c56)c3F)C[C@H]3C[C@@H]4C3(C)C)C2)C1 (single isomer, unassigned) [Example 14-63]  0.364 µM
7. C=CC(=O)N1CC2(CCN(c3nc4c(c(-c5cc(O)ccc5C)c3C)COC(C)(C)C4)C2)C1 [Example 14-30, 1-(6-(4-(5-hydroxy-2-methylphenyl)-3,7,7-trimethyl-7,8-dihydro-5H-pyrano[4,3-b]pyridin-2-yl)-2,6-diazaspiro[3.4]octan-2-yl)-2-propen-1-one]  0.215 µM
8. C=CC(=O)N1CC2(CCN(c3nc4c(c(-c5c(C)c(Cl)cc6cnn(C)c56)c3F)COC(C)(C)C4)C2)C1 [Example 14-55, 1-(6-(4-(5-chloro-1,6-dimethyl-1H-indazol-7-yl)-3-fluoro-7,7-dimethyl-7,8-dihydro-5H-pyrano[4,3-b]pyridin-2-yl)-2,6-diazaspiro[3.4]octan-2-yl)-2-propen-1-one]  0.209 µM
9. C=CC(=O)N1CC2(CCN(c3nc4c(c(-c5c(C)c(Cl)cc6cn[nH]c56)c3F)COC(C)(C)C4)C2)C1 [Example 14-85]  0.056 µM

same assay, conditions: Avg 2 h Coupled exchange IC50, 2 h compound pre-incubation, SOS-mediated nucleotide exchange

In order of falling IC50:
1. C=CC(=O)N1CC2(CCN(c3nc4c(c(-c5c(C)ccc6cnn(C)c56)c3C#N)CC[C@H]3C[C@@H]43)C2)C1 (single isomer, unassigned) [Example 13-135, (6a,7a)-4-(1,6-dimethyl-1H-indazol-7-yl)-2-(2-(2-propenoyl)-2,6-diazaspiro[3.4]octan-6-yl)-6,6a,7,7a-tetrahydro-5H-cyclopropa[h]quinoline-3-carbonitrile]  62.5 µM
2. C=CC(=O)N1CC2(CCN(c3nc4c(c(-c5c(C)cccc5O)c3C#N)C[C@H]3C[C@@H]4C3)C2)C1 (single isomer, unassigned) [Example 13-40]  34.1 µM
3. C=CC(=O)N1CC2(CCN(c3nc4c(c(-c5cc(O)c(F)c6ccccc56)c3C#N)CC[C@H]3C[C@@H]43)C2)C1 (single isomer, unassigned) [Example 13-75]  17 µM
4. C=CC(=O)N1CC2(CCN(c3nc4c(c(-c5cc(O)cc(Cl)c5C)c3C)COC(C)(C)C4)C2)C1 (single isomer, unassigned) [Example 12-44, (P)-1-(6-(4-(3-chloro-5-hydroxy-2-methylphenyl)-3,7,7-trimethyl-7,8-dihydro-5H-pyrano[4,3-b]pyridin-2-yl)-2,6-diazaspiro[3.4]octan-2-yl)prop-2-en-1-one]  11 µM
5. C=CC(=O)N1CC2(CCN(c3nc4c(c(-c5c(C)ccc6cnn(C)c56)c3C)CCC(C)(C)C4)C2)C1 (single isomer, unassigned) [Example 2-20, (M)-1-(6-(4-(1,6-dimethyl-1H-indazol-7-yl)-3,7,7-trimethyl-5,6,7,8-tetrahydro-2-quinolinyl)-2,6-diazaspiro[3.4]octan-2-yl)-2-propen-1-one]  10.5 µM
6. C=CC(=O)N1CC2(CCN(c3nc4c(c(-c5ccccc5Cl)c3C#N)CC(C)(C)C4)C2)C1 (single isomer, unassigned) [Example 13-24, (M)-4-(2-chlorophenyl)-6,6-dimethyl-2-(2-(2-propenoyl)-2,6-diazaspiro[3.4]octan-6-yl)-6,7-dihydro-5H-cyclopenta[b]pyridine-3-carbonitrile]  1.8 µM
7. C=CC(=O)N1CC2(CCN(c3nc4ccccc4c(-c4c(C)ccc5[nH]ncc45)c3C)C2)C1 [Example 8, 1-(6-(3-Methyl-4-(5-methyl-1H-indazol-4-yl)quinolin-2-yl)-2,6-diazaspiro[3.4]octan-2-yl)prop-2-en-1-one]  1.27 µM
8. C=CC(=O)N1CC2(CCN(c3nc4c(c(-c5c(C)ccc6[nH]ncc56)c3C)CCC(C)(C)C4)C2)C1 (single isomer, unassigned) [Example 2-12, (M)-1-(6-(3,7,7-trimethyl-4-(5-methyl-1H-indazol-4-yl)-5,6,7,8-tetrahydro-2-quinolinyl)-2,6-diazaspiro[3.4]octan-2-yl)-2-propen-1-one]  1.11 µM
9. C=CC(=O)N1CC2(CCN(c3nc4c(c(-c5cnccc5C)c3C#N)C[C@H]3C[C@@H]4C3(C)C)C2)C1 (single isomer, unassigned) [Example 13-123]  0.856 µM
10. C=CC(=O)N1CC2(CCN(c3nc4c(c(-c5cc(O)cc(C(F)(F)F)c5F)c3C)CCC(C)(C)C4)C2)C1 [Example 2-22, 1-(6-(4-(2-fluoro-5-hydroxy-3-(trifluoromethyl)phenyl)-3,7,7-trimethyl-5,6,7,8-tetrahydro-2-quinolinyl)-2,6-diazaspiro[3.4]octan-2-yl)-2-propen-1-one]  0.846 µM
11. C=CC(=O)N1CC2(CCN(c3nc4c(c(-c5cccc6ccn(C)c56)c3C#N)COC(C)(C)C4)C2)C1 [Example 2-30, 7,7-dimethyl-4-(1-methyl-1H-indol-7-yl)-2-(2-(2-propenoyl)-2,6-diazaspiro[3.4]octan-6-yl)-7,8-dihydro-5H-pyrano[4,3-b]pyridine-3-carbonitrile]  0.75 µM
12. C=CC(=O)N1CC2(CCN(c3nc4c(c(-c5c(C)ccc6cn[nH]c56)c3C)CCC(C)(C)C4)C2)C1 [Example 2-23, 1-(6-(3,7,7-trimethyl-4-(6-methyl-1H-indazol-7-yl)-5,6,7,8-tetrahydro-2-quinolinyl)-2,6-diazaspiro[3.4]octan-2-yl)-2-propen-1-one]  0.735 µM
13. C=CC(=O)N1CC2(CCN(c3nc4c(c(-c5c(C)ccc6[nH]ncc56)c3C#N)OC3(COC3)C4)C2)C1 [Example 13-107, 7-(5-methyl-1H-indazol-4-yl)-5-(2-(2-propenoyl)-2,6-diazaspiro[3.4]octan-6-yl)-3H-spiro[furo[3,2-b]pyridin-2,3′-oxetane]-6-carbonitrile]  0.702 µM
14. C=CC(=O)N1CC2(CCN(c3nc4c(c(-c5ccc(F)c6cc[nH]c56)c3C#N)COC(C)(C)C4)C2)C1 [Example 12-3, 4-(4-fluoro-1H-indol-7-yl)-7,7-dimethyl-2-(2-(2-propenoyl)-2,6-diazaspiro[3.4]octan-6-yl)-7,8-dihydro-5H-pyrano[4,3-b]pyridine-3-carbonitrile]  0.623 µM
15. Cc1ccc2[nH]ncc2c1-c1c(C#N)c(N2CCC3(CN(C(=O)/C=C/CN(C)C)C3)C2)cc2c1COCC2 [Example 2-94, 6-(2-((2E)-4-(dimethylamino)-2-butenoyl)-2,6-diazaspiro[3.4]octan-6-yl)-8-(5-methyl-1H-indazol-4-yl)-3,4-dihydro-1H-2-benzopyran-7-carbonitrile]  0.61 µM
16. C=CC(=O)N1CC2(CCN(c3nc4ccccc4c(-c4c(C)ccc5[nH]nc(Cl)c45)c3C#N)C2)C1 [Example 14-3, 4-(3-chloro-5-methyl-1H-indazol-4-yl)-2-(2-(2-propenoyl)-2,6-diazaspiro[3.4]octan-6-yl)-3-quinolinecarbonitrile]  0.588 µM
17. C=CC(=O)N1CC2(CCN(c3nc4c(c(-c5c(C)ccc6cnn(C)c56)c3C#N)COC(C3CC3)C4)C2)C1 [Example 13-111, (7R)-7-cyclopropyl-4-(1,6-dimethyl-1H-indazol-7-yl)-2-(2-(2-propenoyl)-2,6-diazaspiro[3.4]octan-6-yl)-7,8-dihydro-5H-pyrano[4,3-b]pyridine-3-carbonitrile|(7S)-7-cyclopropyl-4-(1,6-dimethyl-1H-indazol-7-yl)-2-(2-(2-propenoyl)-2,6-diazaspiro[3.4]octan-6-yl)-7,8-dihydro-5H-pyrano[4,3-b]pyridine-3-carbonitrile]  0.294 µM
18. C=CC(=O)N1CC2(CCN(c3nc4c(c(-c5c(C)ccc6cnn(C)c56)c3C#N)CCC4(C)C)C2)C1 (single isomer, unassigned) [Example 13-103, (M)-2-(2-acryloyl-2,6-diazaspiro[3.4]octan-6-yl)-4-(1,6-dimethyl-1H-indazol-7-yl)-7,7-dimethyl-6,7-dihydro-5H-cyclopenta[b]pyridine-3-carbonitrile]  0.283 µM
19. C=CC(=O)N1CC2(CCN(c3nc4c(c(-c5cc(O)cc6ncccc56)c3C#N)C[C@H]3C[C@@H]4C3(C)C)C2)C1 (single isomer, unassigned) [Example 2-47]  0.181 µM
20. CN(C)C/C=C/C(=O)N1CC2(CCN(c3nc4c(c(-c5cc(O)cc6ccccc56)c3C#N)CC[C@@H]3C[C@H]43)C2)C1 (atropisomer, axis not shown; (P)) [Example 13-87, (P)-(6aR,7aS)-2-(2-((2E)-4-(dimethylamino)-2-butenoyl)-2,6-diazaspiro[3.4]octan-6-yl)-4-(3-hydroxy-1-naphthalenyl)-6,6a,7,7a-tetrahydro-5H-cyclopropa[h]quinoline-3-carbonitrile]  0.13 µM
21. C=CC(=O)N1CC2(CCN(c3nc4c(c(-c5c(C)ccc6[nH]ncc56)c3C#N)[C@H]3CC[C@@H]4C3)C2)C1 (single isomer, unassigned) [Example 14-5]  0.129 µM
